Results as given in publication PMC11864979, “First-in-class ultralong-target-residence-time p38α inhibitors as a mitosis-targeted therapy for colorectal cancer” (Nature Cancer, 2025).
Values joined by “and” are separate entries in the source; they are usually repeats but may differ in a detail not shown here. Equal entries are not always repeated.

Columns and labels:
[1] = system: PDO12; experiment: cell viability in patient-derived CRC organoids PDO12; type: cell-based, human
Description: (§1) For in vitro treatment studies, organoids were mechanically dissociated and digested using TrypLE supplemented with 100 µg ml^−1 DNaseI and 10.5 µM Y-27632 dihydrochloride (Invitrogen) at 37 °C. A total of 1,000–2,000 single cells were plated per well in white 96-well plates (Greiner) in culture medium containing 10% GFR Matrigel or Cultrex BME. The treatment with doxycycline (5 µg ml^−1), pharmacological inhibitors or corresponding volumes of DMSO was started 24 h after plating. Doxycycline was obtained from Sigma-Aldrich. […] Cell viability was measured by means of CellTiter-Glo 3D or CellTiter-Glo 2.0 reagent (Promega) according to the manufacturers’ instructions and the Infinite M Plex reader (Tecan, i-control version 3.9.1 software). Results were normalized to vehicle (DMSO) or to shNC. For cell-doubling assays, the cell number was quantified at the corresponding time points using Guava EasyCyte flow cytometer (Luminex, CytoSoft v5.2 software).

[2] = system: PDO14; experiment: cell viability in patient-derived CRC organoids PDO14; type: cell-based, human
Description: as §1

[3] = system: PDO11; experiment: cell viability in patient-derived CRC organoids PDO11; type: cell-based, human
Description: as §1

[4] = system: LS 174T; experiment: cell viability in human CRC cell line LS 174T; type: cell-based; settings: 4 d
Description: The cells were cultured at 37 °C and 7% CO2 with RPMI (KAP^2D cells) or DMEM (other cell lines), supplemented with 10% FBS and penicillin–streptomycin. […] No commonly misidentified cell lines were used. Mycoplasma contamination was excluded by a PCR-based analysis.

[5] = system: KAP liver metastasis; experiment: survival of wild-type mice with KAP liver metastasis; type: in vivo, mouse
Description: Subcutaneous injection, splenic seeding or cecum injection of organoids was performed in 8–10-week-old C57BL/6 N/Crl, Rag2^−/− (B6.Cg-Rag2^tm1.1Cgn/J), or CB17 Scid beige (CB17.Cg-Prkdc^scidLyst^bg-J/Crl) mice, obtained from Charles River. The organoids were dissociated into single cells, washed with PBS and injected in a 1:1 mixture of PBS and Matrigel. For murine organoids, 1 × 10^5 cells were injected into the left and right flanks or the spleen capsule and 2 × 10^6 cells were injected into the cecum wall. For human organoids, 4 × 10^5 cells were injected into the flanks of CB17 Scid beige mice. For splenic seeding and cecum injection, mice were anaesthetized using ketamine (100 mg kg^−1, intraperitoneally) and xylazin (10 mg/kg, intraperitoneally) in NaCl and a small laparotomy below the thorax was performed.
No mice were excluded during treatment studies.

[6] = system: HCT-15; experiment: cell viability in human CRC cell line HCT-15; type: cell-based; settings: 4 d
Description: To generate KAP^2D cells, KAP organoids were isolated from Matrigel, fragmented by mechanical dissociation and plated without any extracellular matrix on common cell culture dishes. Phoenix-Eco packaging cells (CRL-3214), HCT-15 (CCL-225), HCT 116 (CCL-247), COLO 205 (CCL-222), LS 174T (CL-188), RKO (CRL-2577) and HT-29 (HTB-38) were obtained from the American Type Culture Collection. The cells were cultured at 37 °C and 7% CO2 with RPMI (KAP^2D cells) or DMEM (other cell lines), supplemented with 10% FBS and penicillin–streptomycin. KAP^2D cells were authenticated using PCR (Kras locus and Trp53 locus). Phoenix-Eco packaging cells and HCT-15, HCT 116, COLO 205, LS 174T, RKO and HT-29 cells were authenticated by the provider using short tandem repeat profiling. No commonly misidentified cell lines were used. Mycoplasma contamination was excluded by a PCR-based analysis.
as §1

O=C(NCCN1CCOCC1)c1ccc2c(c1)C(=O)c1ccc(Nc3ccc(F)c(NC(=O)c4ccccc4)c3)cc1CC2 [Compound 1639]
Cell viability (%) ([1]; PDO12, 0.5 µM, 4 d, 0.5 µM): 74.14% and 86.52% and 99.28%
Cell viability (%) ([1]; PDO12, 1 µM, 4 days, 1 µM): 67.94% and 91.05% and 88.04%
viability at 0.5 µM ([2]; Homo sapiens, 96 h, PDO14, 0.5 µM, 4 d, read-out: Cell viability (%)): 101%
viability at 1 µM ([2]; Homo sapiens, 96 h, PDO14, 1 µM, 4 days, read-out: Cell viability (%)): 105%
Cell viability (%) ([2]; PDO14, 0.5 µM, 4 d, 0.5 µM): 102.33% and 109.28%
Cell viability (%) ([2]; PDO14, 1 µM, 4 days, 1 µM): 95.42% and 93.44%
Cell viability (%) ([3]; PDO11, 0.5 µM, 4 d, 0.5 µM): 109.25% and 122.99% and 99.10%
Cell viability (%) ([3]; PDO11, 1 µM, 4 days, 1 µM): 102.62% and 119.73% and 93.65%
LS 174T Cell viability (%) ([4]; 0.0137 µM): 96.96% and 98.13% and 93.47% and 92.87% and 103.70%
LS 174T Cell viability (%) ([4]; 0.0412 µM): 88.17% and 87.93% and 84.72% and 87.30% and 86.06%
LS 174T Cell viability (%) ([4]; 0.1235 µM): 73.32% and 74.11% and 80.93% and 80.83% and 84.53%
LS 174T Cell viability (%) ([4]; 0.3704 µM): 72.52% and 70.49% and 77.50% and 75.15% and 72.31%
LS 174T Cell viability (%) ([4]; 1.1111 µM): 73.18% and 76.23% and 79.82% and 74.44% and 73.58%
LS 174T Cell viability (%) ([4]; 3.3333 µM): 64.63% and 65.58% and 65.84% and 62.28% and 62.47%
LS 174T Cell viability (%) ([4]; 10.0000 µM): 22.96% and 24.63% and 23.18% and 23.96% and 22.77%
viability at 0.0137 µM ([4]; Homo sapiens, LS174T, 96 h, 0.0137 µM, read-out: LS 174T Cell viability (%)): 95%
viability at 0.0412 µM ([4]; Homo sapiens, LS174T, 96 h, 0.0412 µM, read-out: LS 174T Cell viability (%)): 81.8%
viability at 0.1235 µM ([4]; Homo sapiens, LS174T, 96 h, 0.1235 µM, read-out: LS 174T Cell viability (%)): 73.7%
viability at 0.3704 µM ([4]; Homo sapiens, LS174T, 96 h, 0.3704 µM, read-out: LS 174T Cell viability (%)): 74.4%
viability at 1.1111 µM ([4]; Homo sapiens, LS174T, 96 h, 1.1111 µM, read-out: LS 174T Cell viability (%)): 77.1%
viability at 3.3333 µM ([4]; Homo sapiens, LS174T, 96 h, 3.3333 µM, read-out: LS 174T Cell viability (%)): 68.9%
viability at 10 µM ([4]; Homo sapiens, LS174T, 96 h, 10.0000 µM, read-out: LS 174T Cell viability (%)): 24.4%
survival / therapeutic efficacy in KAP liver metastasis (in words) ([5]; 20 mg kg^−1 daily, start 5 weeks after organoid inoculation): slight but nonsignificant survival benefit
Survival ([5]; single animals, 1 = event, 0 = censored, Fig. 6e): 26 d of treatment and 29 d of treatment and 11 d of treatment and 12 d of treatment and 25 d of treatment and 27 d of treatment and 20 d of treatment
HCT-15 Cell viability (%) ([6]; 0.0137 µM): 92.80% and 91.50% and 85.00% and 82.22% and 80.95%
HCT-15 Cell viability (%) ([6]; 0.0412 µM): 78.90% and 80.07% and 94.65% and 93.32% and 92.61%
HCT-15 Cell viability (%) ([6]; 0.1235 µM): 84.07% and 87.40% and 91.28% and 90.94% and 89.46%
HCT-15 Cell viability (%) ([6]; 0.3704 µM): 84.12% and 88.83% and 87.00% and 85.77% and 86.10%
HCT-15 Cell viability (%) ([6]; 1.1111 µM): 77.30% and 80.39% and 72.06% and 72.72% and 71.41%
HCT-15 Cell viability (%) ([6]; 3.3333 µM): 62.02% and 64.03% and 55.98% and 56.04% and 55.89%
HCT-15 Cell viability (%) ([6]; 10.0000 µM): 36.90% and 37.04% and 27.63% and 27.72% and 28.84%
viability at 0.0137 µM ([6]; Homo sapiens, HCT-15, 96 h, 0.0137 µM, read-out: HCT-15 Cell viability (%)): 95.1%
viability at 0.0412 µM ([6]; Homo sapiens, HCT-15, 96 h, 0.0412 µM, read-out: HCT-15 Cell viability (%)): 77.5%
viability at 0.1235 µM ([6]; Homo sapiens, HCT-15, 96 h, 0.1235 µM, read-out: HCT-15 Cell viability (%)): 82.6%
viability at 0.3704 µM ([6]; Homo sapiens, HCT-15, 96 h, 0.3704 µM, read-out: HCT-15 Cell viability (%)): 80.4%
viability at 1.1111 µM ([6]; Homo sapiens, HCT-15, 96 h, 1.1111 µM, read-out: HCT-15 Cell viability (%)): 74%
viability at 3.3333 µM ([6]; Homo sapiens, HCT-15, 96 h, 3.3333 µM, read-out: HCT-15 Cell viability (%)): 56.5%
